Measurements from patent US20250129049A1, “1H-PYRAZOLE-3-AMINE DERIVATIVE HAVING BICYCLIC BACKBONE” (Sumitomo Pharma Co., Ltd., priority 2021, published 2025).

Columns and labels:
[1] = system: ES-2 cells; experiment: Cell growth suppression experiment (ES-2); format: cell-based; settings: Homo sapiens, 48 h, cultured 2 days, CellTiter-Glo 3D
Experimental: ES-2 cells were obtained from the American Type Culture Collection (ATCC). These cells were cultured at 37° C. in the presence of 5% CO2 in a McCoy's 5a medium containing 10% fetal bovine serum and 1% penicillin/streptomycin.
500 cells were seeded for each well in a 384-well plate, and the evaluated compound was added to the final DMSO concentration of 0.1% to culture the cells for 2 days. After completion of the culture, the cell viability rate was calculated using CellTiter-Glo (registered trademark) 3D Reagent (Promega, G968B).

[2] = biological target: hERG current (Homo sapiens (Human), UniProt Q12809); experiment: cell-based
[3] = Liposome encapsulation test; format: physicochemical; settings: concentration upon compound introduction 2 or 3 mg/mL
Experimental: 6.48 g of hydrogenated soybean phosphatidylcholine (COATSOME NC-21E, NOF Corporation), 2.32 g of cholesterol (Sigma) and 2.06 g of distearoylphosphatidylethanolamine-methoxypolyethylene glycol 2000 (SUNBRIGHT DSPE-020CN, NOF Corporation) were dissolved in 560 mL of t-butyl alcohol heated to 65° C. The solution was frozen with dry ice/acetone bath and t-butyl alcohol was then removed by evaporation under reduced pressure to obtain a lipid mixture.
200 mL of 250 mM ammonium sulfate solution was added to the lipid mixture. The resulting mixture was heated to 65° C. and dispersed with a homogenizer (ULTRA-TURRAX, IKA) to obtain a crude liposome dispersion. […] A dialysis cassette (Slide-A-Lyzer G2 Dialysis Cassettes 20K MWCO, Thermo Scientific) was used to replace the outer aqueous phase of the liposome with a 10 mM L-histidine buffer/10% sucrose solution (pH 6.5) to obtain an empty liposome solution. The solution was filtered through a 0.22 μm membrane filter, and a 10 mM L-histidine buffer/10% sucrose solution (pH 6.5) was added to adjust the total lipid concentration to be 75 mM (75 μmol/mL) or 50 mM (50 μmol/mL). The prepared amount was increased or decreased appropriately.
2 to 3 mg of the test compound was weighed out. 1 mL of the empty liposome solution with a total lipid concentration of 50 mM was added. An aqueous 1 mol/L hydrochloric acid or 1 mol/L sodium hydroxide solution was added to adjust the pH to 5.5 to 7. […] Insoluble substances, when present, were removed by centrifugation for 5 minutes at 15,000× g.
The liposome encapsulation ratio was calculated as follows.
100 μL of liposome solution was passed through an ultrafiltration filter (Amicon Ultra, 100K, 0.5 mL, Merck), and centrifuged at 4° C. at 15,000×g for 10 minutes. The concentration of the compound in the filtrate after ultrafiltration was measured by HPLC as the unencapsulated compound concentration.
The liposome solution was diluted with a trifluoroacetic acid/water/methanol mixture (0.1/25/75) and was left standing for 10 minutes or longer at 5° C. The solution was centrifuged for 5 minutes at 15,000× g to remove insoluble substances. The compound concentration in the supernatant was measured by HPLC as the compound concentration in the liposome solution.
The encapsulation ratio and the encapsulation efficiency were calculated by the following equations.
HPLC measurement conditions are the following.

[4] = biological target: CHK1 kinase (Homo sapiens (Human), UniProt O14757)
[5] = Pharmacokinetic test, intravenous administration to mice; format: in vivo; settings: female, BALB/c, mouse, plasma, liposome formulations, 1.0 mg/kg i.v., trapezoidal method, 0 hours to last quantifiable time
Experimental: Blood was collected over time up to 72 hours after administration from the jugular vein under no anesthesia.

[6] = system: BxPC3 cells; experiment: Cell growth suppression test on various cancer cell lines: BxPC3; format: cell-based; settings: Homo sapiens, BXPC-3, 72 h; BxPC3 (pancreatic cancer), cultured 3 days
Experimental: (§1) HT1080 cells (derived from soft tissue sarcoma) were cultured at 37° C. in the presence of 5% CO2 in an EMEM medium containing 10% fetal bovine serum and 1% penicillin/streptomycin. SJCRH30 cells (derived from soft tissue sarcoma) and BxPC3 cells (derived from pancreatic cancer) were cultured at 37° C. in the presence of 5% C02 in a McCoy's 5a medium containing 10% fetal bovine serum and 1% penicillin/streptomycin. SW948 cells (derived from colon cancer) were cultured at 37° C. in air in a L-15 medium containing 10% fetal bovine serum and 1% penicillin/streptomycin.
(§2) The cells were seeded for each well in a 96-well plate at 70-90% confluency 96 hours after seeding, the evaluated compound was added to the final DMSO concentration of 0.1%, and the cells were cultured for 3 days. After completion of the culture, the cell viability rate was calculated using CellTiter-Glo (registered trademark) 3D Reagent (Promega, G968B).

[7] = system: SW948 cells; experiment: Cell growth suppression test on various cancer cell lines: SW948; format: cell-based; settings: Homo sapiens, 72 h; SW948 (colon cancer), cultured 3 days
Experimental: as §1, §2

[8] = system: HT1080 cells; experiment: Cell growth suppression test on various cancer cell lines: HT1080; format: cell-based; settings: Homo sapiens, HT-1080, 72 h; HT1080 (soft tissue sarcoma), cultured 3 days
Experimental: as §1, §2

[9] = system: SJCRH30 cells; experiment: Cell growth suppression test on various cancer cell lines: SJCRH30; format: cell-based; settings: 72 h; SJCRH30 (soft tissue sarcoma), cultured 3 days
Experimental: as §1, §2

[10] = biological target: hERG (Homo sapiens (Human), UniProt Q12809); experiment: in vitro; settings: CHO cells stably expressing hERG
Chain of hERG (Q12809 whole entry): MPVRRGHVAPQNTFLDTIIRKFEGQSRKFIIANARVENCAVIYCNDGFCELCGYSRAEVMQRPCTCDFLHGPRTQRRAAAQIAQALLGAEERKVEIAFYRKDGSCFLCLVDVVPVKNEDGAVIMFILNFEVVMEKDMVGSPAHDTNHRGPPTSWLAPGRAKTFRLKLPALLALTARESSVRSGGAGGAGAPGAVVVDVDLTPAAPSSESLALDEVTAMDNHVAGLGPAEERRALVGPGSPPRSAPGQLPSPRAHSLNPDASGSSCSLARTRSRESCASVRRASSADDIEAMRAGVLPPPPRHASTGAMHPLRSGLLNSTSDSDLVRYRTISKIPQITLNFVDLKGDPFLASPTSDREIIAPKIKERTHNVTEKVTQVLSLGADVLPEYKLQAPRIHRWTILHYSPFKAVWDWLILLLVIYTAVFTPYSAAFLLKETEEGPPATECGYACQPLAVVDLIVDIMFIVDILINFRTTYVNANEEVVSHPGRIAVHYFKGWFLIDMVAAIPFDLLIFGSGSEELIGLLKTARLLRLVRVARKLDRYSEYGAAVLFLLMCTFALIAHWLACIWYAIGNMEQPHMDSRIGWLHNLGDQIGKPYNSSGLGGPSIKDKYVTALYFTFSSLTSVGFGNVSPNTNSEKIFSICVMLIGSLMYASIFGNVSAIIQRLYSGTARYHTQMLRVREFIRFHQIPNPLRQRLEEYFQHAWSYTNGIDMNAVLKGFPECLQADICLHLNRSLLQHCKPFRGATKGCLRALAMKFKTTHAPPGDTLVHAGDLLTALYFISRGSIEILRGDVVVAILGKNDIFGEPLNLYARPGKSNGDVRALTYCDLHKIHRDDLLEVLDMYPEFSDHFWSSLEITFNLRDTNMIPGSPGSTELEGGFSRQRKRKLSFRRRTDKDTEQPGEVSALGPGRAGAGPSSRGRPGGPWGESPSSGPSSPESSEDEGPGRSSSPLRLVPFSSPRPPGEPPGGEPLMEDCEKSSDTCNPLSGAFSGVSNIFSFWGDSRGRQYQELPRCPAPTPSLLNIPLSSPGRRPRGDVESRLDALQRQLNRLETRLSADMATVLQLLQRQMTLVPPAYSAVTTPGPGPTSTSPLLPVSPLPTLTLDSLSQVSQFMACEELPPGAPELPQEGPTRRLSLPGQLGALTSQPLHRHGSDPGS

Chain of hERG current (Q12809 whole entry): as above
Chain of CHK1 kinase (O14757 whole entry): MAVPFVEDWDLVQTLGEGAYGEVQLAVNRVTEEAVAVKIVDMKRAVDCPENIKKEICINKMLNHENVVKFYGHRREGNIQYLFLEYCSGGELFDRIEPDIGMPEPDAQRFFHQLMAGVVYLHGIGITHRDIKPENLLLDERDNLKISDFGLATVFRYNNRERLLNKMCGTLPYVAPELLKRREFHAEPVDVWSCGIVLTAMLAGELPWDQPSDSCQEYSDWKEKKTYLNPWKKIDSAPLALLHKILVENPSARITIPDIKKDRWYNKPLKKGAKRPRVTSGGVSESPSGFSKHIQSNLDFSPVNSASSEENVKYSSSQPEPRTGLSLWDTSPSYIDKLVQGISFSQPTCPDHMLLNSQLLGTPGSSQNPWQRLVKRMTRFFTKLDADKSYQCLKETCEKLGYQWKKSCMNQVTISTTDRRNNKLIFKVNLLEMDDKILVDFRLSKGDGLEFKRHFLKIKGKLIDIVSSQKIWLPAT

| Structure (SMILES) | IC50 [1] [nM] | IC50 [2] [nM] | Compound concentration in liposome solution [3] [µg/mL] | Encapsulation ratio [3] [%] | IC50 [4] [nM] | AUC(0-t) [5] [µg·h/mL] | IC50 [6] [nM] | IC50 [7] [nM] | IC50 [8] [nM] | IC50 [9] [nM] | selectivity ratio [10] |
| --- | --- | --- | --- | --- | --- | --- | --- | --- | --- | --- | --- |
| N#Cc1cnc(Nc2cc(-c3c(OCCCN)ccc4ccnn34)[nH]n2)cn1 [Example 6, 5-({5-[6-(3-aminopropoxy)pyrazolo[1,5-a]pyridin-7-yl]-1H-pyrazol-3-yl}amino)pyrazine-2-carbonitrile] | 6.24 | 1300 | 1880 | 100.0 | 0.21 | 430 |  |  |  |  |  |
| N#Cc1cnc(Nc2cc(-c3c(OCCCN)cnc4cccnc34)[nH]n2)cn1 [Example 8, 5-({5-[3-(3-aminopropoxy)-1,5-naphthyridin-4-yl]-1H-pyrazol-3-yl}amino)pyrazine-2-carbonitrile] | 7.02 |  |  |  | 0.5 |  | 7 | 22.3 | 9.1 | < 3 |  |
| N#Cc1cnc(Nc2cc(-c3c(OC[C@@H]4CNCCO4)cnc4cccnc34)[nH]n2)cn1 [Example 12] | 23.2 | 1000 |  |  | 0.38 |  |  |  |  |  |  |
| N#Cc1cnc(Nc2cc(-c3c(OCC4(CN)CC4)cnc4c3OCC4)[nH]n2)cn1 [Example 14, 5-{[5-(6-{[1-(aminomethyl)cyclopropyl]methoxy)-2,3-dihydrofuro[3,2-b]pyridin-7-yl)-1H-pyrazol-3-yl]amino}pyrazine-2-carbonitrile] | 3.72 | > 10000 | 1940 | 99.9 | 0.27 | 397 |  |  |  |  | ≥ 800 |
| N#Cc1cnc(Nc2cc(-c3c(O[C@@H]4CCC[C@H](N)C4)cnc4c3OCC4)[nH]n2)cn1 [Example 24, 5-{[5-(6-{[(1R,3S)-3-aminocyclohexyl]oxy}-2,3-dihydrofuro[3,2-b]pyridin-7-yl)-1H-pyrazol-3-yl]amino}pyrazine-2-carbonitrile] | 12.7 | 4800 |  |  | 0.31 |  |  |  |  |  |  |
| C[C@H](CN)COc1cnc2c(c1-c1cc(Nc3cnc(C#N)cn3)n[nH]1)OCC2 [Example 28, 5-[(5-{6-[(2R)-3-amino-2-methylpropoxy]-2,3-dihydrofuro[3,2-b]pyridin-7-yl}-1H-pyrazol-3-yl)amino]pyrazine-2-carbonitrile] | 6.4 |  |  |  | 0.43 |  | < 3 | 5 | < 3 | < 3 |  |
| N#Cc1cnc(Nc2cc(-c3c(O[C@H]4C[C@H](N)[C@H]5C[C@H]54)cnc4c3OCC4)[nH]n2)cn1 [Example 29, 5-{[5-(6-{[(1R,2S,4S,5S)-4-aminobicyclo[3.1.0]hexan-2-yl]oxy)-2,3-dihydrofuro[3,2-b]pyridin-7-yl)-1H-pyrazol-3-yl]amino}pyrazine-2-carbonitrile] | 29.4 | > 10000 |  |  | 0.33 |  |  |  |  |  |  |
| N#Cc1cnc(Nc2cc(-c3c(OCC4(F)CNC4)cnc4cccnc34)[nH]n2)cn1 [Example 35, 5-[(5-{3-[(3-fluoroazetidin-3-yl)methoxy]-1,5-naphthyridin-4-yl}-1H-pyrazol-3-yl)amino]pyrazine-2-carbonitrile] | 8 | > 10000 |  |  | 0.6 |  |  |  |  |  | ≥ 800 |
| COc1cccc(OCCCN)c1-c1cc(Nc2cnc(C#N)cn2)n[nH]1 [Prexasertib, reference compound] | 8.55 |  | 2160 |  |  |  | 9.5 | 38.9 | 14.9 | 4.9 |  |
